Active and inactive are the calls of the source.
Tests used:
[1] = Antioxidant activity assessed as DPPH scavenging activity; type: functional
[2] = tested on: Cladosporium cucumerinum; test: Antifungal activity against Cladosporium cucumerinum; type: functional, organism-based
[3] = tested on: Bacillus subtilis; test: Antibacterial activity against Bacillus subtilis; type: functional, organism-based
[4] = tested on: Candida albicans; test: Antifungal activity against Candida albicans; type: functional, organism-based
[5] = target: Acetylcholinesterase (Homo sapiens) (UniProt P22303); test: Inhibition of acetylcholinesterase

Measured: Activity

Chain of Acetylcholinesterase (Homo sapiens) (P22303 whole entry): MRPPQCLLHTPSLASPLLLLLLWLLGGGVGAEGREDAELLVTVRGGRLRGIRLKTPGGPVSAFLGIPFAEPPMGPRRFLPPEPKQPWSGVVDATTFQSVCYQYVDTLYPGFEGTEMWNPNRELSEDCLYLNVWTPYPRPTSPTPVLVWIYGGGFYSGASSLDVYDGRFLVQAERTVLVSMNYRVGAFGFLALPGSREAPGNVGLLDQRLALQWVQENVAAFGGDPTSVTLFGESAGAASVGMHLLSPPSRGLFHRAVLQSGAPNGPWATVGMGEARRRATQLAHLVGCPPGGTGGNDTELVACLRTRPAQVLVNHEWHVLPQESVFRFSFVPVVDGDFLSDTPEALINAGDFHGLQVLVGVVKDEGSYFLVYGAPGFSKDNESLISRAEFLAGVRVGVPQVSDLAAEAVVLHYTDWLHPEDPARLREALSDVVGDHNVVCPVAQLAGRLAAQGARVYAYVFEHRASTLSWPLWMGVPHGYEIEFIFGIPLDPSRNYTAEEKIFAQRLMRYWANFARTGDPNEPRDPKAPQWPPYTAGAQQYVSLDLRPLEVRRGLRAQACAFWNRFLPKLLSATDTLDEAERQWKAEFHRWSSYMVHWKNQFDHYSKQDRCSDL

COc1cc(/C=C2\C(=O)N(CCc3ccc(OC(C)=O)cc3)[C@H](c3ccc(OC(C)=O)c(OC)c3)[C@H]2C(=O)NCCc2ccc(OC(C)=O)cc2)ccc1OC(C)=O
inactive: all assays above

COc1cc(/C=C2\C(=O)N(CCc3ccc(O)cc3)[C@H](c3ccc(O)c(OC)c3)[C@H]2C(=O)NCCc2ccc(O)cc2)ccc1O
inactive: all assays above

Source: ChEMBL document CHEMBL1147260, “Heliotropamide, a novel oxopyrrolidine-3-carboxamide from Heliotropium ovalifolium” (J Nat Prod, 2003)
